Measurements published in US12414960B2, “Analogues of oleuropein and oleacein and uses thereof” (Attica Sciences Ltd., priority 2020, dated 2025).

Experiments:
[1] = system: MDA-MB-231 triple negative breast cancer cells; test: XTT cell growth assay, MDA-MB-231; format: cell-based, human; conditions: NS = not statistically significant; for inhibition at 50 µM: Homo sapiens, MDA-MB-231, 24 h, read-out: Effectiveness to suppress MDA-MB-231 cell growth (cell growth inhibition)
In short: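 Cells grown 24 h in DMEM, then exposed 24 h to 5, 10 and 50 μM compound in serum-free DMEM. Viability read by XTT reduction to formazan after 4 h, absorbance at 450 nm with 630 nm reference; serum-free DMEM alone as negative control.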

[2] = Deoxyribose degradation assay (hydroxyl radical scavenging); format: biochemical; conditions: NS = not statistically significant
In short: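 Hydroxyl radicals from Fenton's reaction degrade 2-deoxyribose. Scavenging is measured as inhibition of this oxidation, read spectrophotometrically as pink chromogen absorbance at 532 nm.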

[3] = system: MCF-7 ER+ breast cancer cells; test: XTT cell growth assay, MCF-7 ER+; format: cell-based, human; conditions: NS = not statistically significant; for inhibition at 50 µM: Homo sapiens, MCF7, 24 h, read-out: Effectiveness to suppress MCF7 cell growth (cell growth inhibition)
In short: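 MCF-7 ER+ cells grown 24 h in DMEM, then given 5, 10 or 50 μM compound in serum-free DMEM for 24 h. XTT reagent added for 4 h. Absorbance read at 450 nm with 630 nm reference; serum-free DMEM alone as negative control.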

Structure (SMILES)	inhibition at 50 µM [1]	Deoxyribose Degradation Assay IC50 [2]	inhibition at 50 µM [3]	Effectiveness to suppress MCF7 cell growth (cell growth inhibition) ([3]; 50 uM, 24 h)	Effectiveness to suppress MDA-MB-231 cell growth (cell growth inhibition) ([1]; 50 uM, 24 h)
C/C=C(/C=O)[C@@H](CC=O)CC(=O)OCCCCCCCCCCCCCCCC [GS26, (3S,4E)-4-formyl-3-(2-oxoethyl)-4-hexenoic acid hexadecyl ester]	47.6%	21.3 μg extract/mL	61%	–	–
C/C=C(/C=O)[C@@H](CC=O)CC(=O)SCCc1ccccc1 [GS27, S-phenethyl (3S,4E)-4-formyl-3-(2-oxoethyl)hex-4-enethioate]	61.4%	16.4 μg extract/mL	83.2%	best efficacy	–
C/C=C1/[C@H](OC2OC(CO)C(O)C(O)C2O)OC=C(C(=O)O)[C@H]1CC(=O)OCCc1ccc(O)c(O)c1 (stereo in doubt) [GS6, (2S,4S,E)-4-(2-(3,4-dihydroxyphenethoxy)-2-oxoethyl)-3-ethylidene-2{[(2R,3S,4R,5R,6S)-3,4,5-trihydroxy-6-(hydroxymethyl)tetrahydro-2H-pyran-2-yl]oxy}-3,4dihydro-2H-pyran-5-carboxylic acid]	45.3%	41.9 μg extract/mL	24.8%	–	–
C/C=C(/C=O)[C@@H](CC=O)CC(=O)OCCc1ccc(O)cc1 [GS19, (3S,4E)-4-formyl-3-(2-oxoethyl)-4-hexenoic acid 2-(4-hydroxyphenyl)ethyl ester, reference compound]	55%	31.9 μg extract/mL	–	–	–
C/C=C1/[C@H](O[C@@H]2O[C@H](CO)[C@@H](O)[C@H](O)[C@H]2O)OC=C(C(=O)OC)[C@H]1CC(=O)OCCc1ccc(O)c(O)c1 [GS1, oleuropein]	48.3%	80.8 μg extract/mL	–	–	–
C/C=C(/C=O)[C@@H](CC=O)CC(=O)OCCCSC [GS28, (3S,4E)-4-formyl-3-(2-oxoethyl)-4-hexenoic acid 3-(methylthio)propyl ester]	47.8%	12.3 μg extract/mL	48.7%	–	–
C/C=C(/C=O)[C@@H](CC=O)CC(=O)OCCOc1ccccc1 [GS24, (3S,4E)-4-formyl-3-(2-oxoethyl)-4-hexenoic acid 2-phenoxyethyl ester]	80.5%	16.1 μg extract/mL	60.5%	–	highest suppressive activity
C/C=C(/C=O)[C@@H](CC=O)CC(=O)OCCc1ccc(O)c(O)c1 [GS17, (3S,4E)-4-formyl-3-(2-oxoethyl)-4-hexenoic acid 2-(3,4-dihydroxyphenyl)ethyl ester, reference compound]	47.6%	21.7 μg extract/mL	35.2%	–	–
